In experiment [1] the target is T1, PD-L1 protein on the surface of MC38-hPDL1 tumor cells (Homo sapiens, UniProt Q9NZQ7).
T1 construct: expressed in transfected cells; host or cells: MC38-hPDL1 (mouse colon cancer cells)
The experiment is described as follows: Induction of endocytosis of PD-L1 on the surface of tumor cells (flow cytometry). The class given is cell-based. The settings on record: 16 hours incubation; for Emax: MC38-hPDL1 cells, read-out: MC38 maximum endocytosis rate; for IC50: inducing endocytosis of PD-L1, MC38-hPDL1 cells, read-out: MC38 IC50. The method, boiled down:
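MC38-hPDL1 mouse colon cancer cells overexpressing human PD-L1 were exposed to compound dilutions for 16 h at 37 °C. Surface PD-L1 was then stained with PE anti-human CD274 for 30 min at room temperature and measured by flow cytometry. Endocytosis rate versus concentration was fitted by nonlinear regression to give IC50.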
For orientation: Flow cytometry measures light scatter and fluorescence of single cells or particles in a stream.

The target in the next experiment is T2, human PD-L1 protein (Homo sapiens, UniProt Q9NZQ7).
T2 construct: purchased Acro Biosystems PD1-H5229
In words: Thermal shift: melting temperature of PD-L1 protein. The class given is binding. The settings on record: for ΔTm at 10 µM: read-out: ΔTm (° C.). How it is done:
Test Embodiment 4. Test of Combination of the Compounds of the Present Disclosure to Improve the Stability (Melting Temperature) of PD-L1 Protein Experimental purpose: To test the ability of compounds to enhance the stability of PD-L1 protein and increase the melting temperature of the protein. Experimental method: […] A solution containing […] HEPES, SYPRO Orange, and 150 mM NaCl was prepared as experimental buffer, and human PD-L1 protein was added at a final concentration of 2 μM. […] PCR tube was put into the PCR machine, and the melt curve function was selected to detect the melting temperature of PD-L1 protein in different treatment groups (heated from 25° C. to 95° C., 0.03° C./s). The experimental data file of the PCR instrument was imported into the thermal shift software to obtain the melting temperature (Tm) of each treatment group, and the Tm of the DMSO vehicle control group was subtracted to obtain the change value (ΔTm) of the melting temperature, as shown in the following table: […]

In the next experiment the target is T3, human PD-1/PD-L1 binding (Homo sapiens, UniProt Q9NZQ7).
T3 construct: PD-L1-His protein (19 to 238 amino acids) (Abcam #ab167713); purchased Abcam (PD-L1-His); R&D (PD-1-Fc) ab167713; 1086-PD
In words: Inhibition of human PD-1/PD-L1 binding (TR-FRET/HTRF). Particulars: TR-FRET, PD-L1-His and PD-1-Fc; read-out: PD-1/PD-L1 binding IC50. Put shortly: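 PD-L1-His (aa 19–238, diluted to 10 nM) and PD-1-Fc (aa 25–167, diluted to 20 nM) incubated with compounds (10 μM or 1 μM top, 3-fold, 11 doses) 60 min at room temperature, then anti-6HIS Eu cryptate/anti-human IgG-XL665 added for 3 h RT or overnight 4 °C. HTRF 665/620 nm ratio gave inhibition and IC50.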
Background: In TR-FRET formats the signal depends on donor and acceptor labels being close together.

[2] abbreviates: compound 10 μM, PD-L1 protein 2 μM, Tm minus DMSO vehicle control.

Read-outs that look alike come from different tables or passages of the source.

T2 sequence (Q9NZQ7 19-238 limits assumed): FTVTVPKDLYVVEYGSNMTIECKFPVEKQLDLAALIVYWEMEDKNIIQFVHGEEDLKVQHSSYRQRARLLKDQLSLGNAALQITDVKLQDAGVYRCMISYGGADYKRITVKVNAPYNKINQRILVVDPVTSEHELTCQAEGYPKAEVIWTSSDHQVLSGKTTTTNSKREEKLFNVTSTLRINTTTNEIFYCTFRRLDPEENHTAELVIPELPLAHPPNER
T1 sequence (Q9NZQ7 19-290): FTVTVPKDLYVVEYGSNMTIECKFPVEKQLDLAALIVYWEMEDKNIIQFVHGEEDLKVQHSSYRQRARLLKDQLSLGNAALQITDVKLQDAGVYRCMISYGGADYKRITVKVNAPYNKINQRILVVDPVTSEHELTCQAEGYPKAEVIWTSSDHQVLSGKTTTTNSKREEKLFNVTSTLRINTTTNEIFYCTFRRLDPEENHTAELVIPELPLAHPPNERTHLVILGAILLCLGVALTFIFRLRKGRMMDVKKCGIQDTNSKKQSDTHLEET
T3 sequence (Q9NZQ7 19-238): as the sequence (Q9NZQ7 19-238 limits assumed) above

On to `COc1nc(-c2cccc(-c3cccc(NC(=O)c4nc5c(n4C4CC4)CCN(C)C5)c3Cl)c2Cl)ccc1CN[C@H]1CCOC[C@@H]1O` (relative stereo) [Embodiment 244, 1-Cyclopropyl-N-(2,2′-dichloro-3′-(5-(((trans-3-hydroxytetrahydro-2H-pyran-4-yl)amino)methyl)-6-methoxypyridin-2-yl)-[1,1′-biphenyl]-3-yl)-5-methyl-4,5,6,7-tetrahydro-1H-imidazo[4,5-c]pyridine-2-carboxamide], for which the Emax in experiment [1] was 94%. The thermal shift (ΔTm) (commonly the change in melting temperature against a reference sample) at 10 µM at human PD-L1 protein (setting [2]) was found to be 11.4 °C.
For `COc1cc(C(=O)Nc2cccc(-c3cccc(NC(=O)c4nc5c(n4C)CCN(C)C5)c3Cl)c2C)ncc1CNc1cc(C)ncn1` [Embodiment 91, N-(2-Chloro-3′-(4-methoxy-5-(((6-methylpyrimidin-4-yl)amino)methyl)picolinamido)-2′-methyl-[1,1′-biphenyl]-3-yl)-1,5-dimethyl-4,5,6,7-tetrahydro-1H-imidazo[4,5-c]pyridine-2-carboxamide], in experiment [1], the Emax amounted to 81% and the IC50 was determined as 14 nM. Further, at human PD-L1 protein (setting [2]), the ΔTm at 10 µM worked out at 10.3 °C.
Taken in the same sequence, the figures for `COc1cc(C(=O)Nc2cccc(-c3cccc(NC(=O)c4nc5c(n4C)CCN(C)C5)c3Cl)c2C)ncc1CNc1ccc(C)nc1` [Embodiment 92, N-(2-Chloro-3′-(4-methoxy-5-(((6-methylpyridin-3-yl)amino)methyl)picolinamido)-2′-methyl-[1,1′-biphenyl]-3-yl)-1,5-dimethyl-4,5,6,7-tetrahydro-1H-imidazo[4,5-c]pyridine-2-carboxamide] were 83%, 9 nM and 10.5 °C.
As to `COc1cc(C(=O)Nc2cccc(-c3cccc(NC(=O)c4nc5c(n4C)CCN(C)C5)c3Cl)c2C)ncc1CNC1(C)COC1` [Embodiment 99, N-(2-Chloro-3′-(4-methoxy-5-(((3-methyloxetan-3-yl)amino)methyl)picolinamido)-2′-methyl-[1,1′-biphenyl]-3-yl)-1,5-dimethyl-4,5,6,7-tetrahydro-1H-imidazo[4,5-c]pyridine-2-carboxamide], the figures for the IC50 (on human PD-1/PD-L1 binding; in experiment [1]) were 4.4 nM and 3.9 nM, respectively. Also, the Emax in experiment [1] was determined as 91%.
For `COc1nc(-c2cccc(-c3cccc(NC(=O)c4nc5c(n4C)CCN(C)C5)c3Cl)c2Cl)ccc1CN[C@@H]1CCOC[C@@H]1F` [Embodiment 115, N-(2,2′-Dichloro-3′-(5-((((3R,4R)-3-fluorotetrahydro-2H-pyran-4-yl)amino)methyl)-6-methoxypyridin-2-yl)-[1,1′-biphenyl]-3-yl)-1,5-dimethyl-4,5,6,7-tetrahydro-1H-imidazo[4,5-c]pyridine-2-carboxamide], in experiment [1], the Emax was 93% and the IC50 was found to be 5.3 nM. For the same molecule, on human PD-L1 protein, the ΔTm at 10 µM is 12.7 °C.
On to `COc1nc(-c2cccc(-c3cccc(NC(=O)c4nc5c(n4C)CCN(C)C5)c3Cl)c2Cl)ccc1CN1CC(CC#N)C1` [Embodiment 182, N-(2,2′-Dichloro-3′-(5-((3-(cyanomethyl)azetidin-1-yl)methyl)-6-methoxypyridin-2-yl)-[1,1′-biphenyl]-3-yl)-1,5-dimethyl-4,5,6,7-tetrahydro-1H-imidazo[4,5-c]pyridine-2-carboxamide], for which the Emax in experiment [1] worked out at 97%. The thermal shift (ΔTm) at 10 µM at human PD-L1 protein (setting [2]) was 16.3 °C.
Turning to `COc1nc(-c2cccc(-c3cccc(NC(=O)c4nc5c(n4C)CCN(C)C5)c3Cl)c2Cl)ccc1CN1CC2(C1)CN(C(=O)C1CC1)C2` [Embodiment 187, N-(2,2′-Dichloro-3′-(5-((6-(cyclopropylcarbonyl)-2,6-diazaspiro[3.3]heptan-2-yl)methyl)-6-methoxypyridin-2-yl)-[1,1′-biphenyl]-3-yl)-1,5-dimethyl-4,5,6,7-tetrahydro-1H-imidazo[4,5-c]pyridine-2-carboxamide], in experiment [1], the Emax amounted to 95% and the IC50 was determined as 1.1 nM. For the same molecule, the ΔTm at 10 µM on human PD-L1 protein (setting [2]) was 21.1 °C.
On to `COc1nc(-c2cccc(-c3cccc(NC(=O)c4nc5c(n4C)CCN(C)C5)c3Cl)c2Cl)ccc1CN1CC2(C1)CN(C(=O)C(F)(F)F)C2` [Embodiment 189, N-(2,2′-Dichloro-3′-(6-methoxy-5-((6-(2,2,2-trifluoroacetyl)-2,6-diazaspiro[3.3]heptan-2-yl)methyl)pyridin-2-yl)-[1,1′-biphenyl]-3-yl)-1,5-dimethyl-4,5,6,7-tetrahydro-1H-imidazo[4,5-c]pyridine-2-carboxamide], for which, in experiment [1], the Emax stood at 96%. Moreover, the thermal shift (ΔTm) at 10 µM at human PD-L1 protein (setting [2]) stood at 19.5 °C.
Regarding `COc1nc(-c2cccc(-c3cccc(NC(=O)c4nc5c(n4C)CCN(C)C5)c3Cl)c2Cl)ccc1CN1CC2(CCN(C(=O)C(C)C)C2)C1` [Embodiment 196, N-(2,2′-Dichloro-3′-(5-((6-isobutyryl-2,6-diazaspiro[3.4]octan-2-yl)methyl)-6-methoxypyridin-2-yl)-[1,1′-biphenyl]-3-yl)-1,5-dimethyl-4,5,6,7-tetrahydro-1H-imidazo[4,5-c]pyridine-2-carboxamide], the Emax in experiment [1] came to 96%. Moreover, the ΔTm at 10 µM at human PD-L1 protein (setting [2]) turned out to be 12.4 °C.
`COc1nc(-c2cccc(-c3cccc(NC(=O)c4nc5c(n4C)CCN(C)C5)c3Cl)c2Cl)ccc1CN1CCN(C(=O)C(C)C)CC1` [Embodiment 199, N-(2,2′-Dichloro-3′-(5-((4-isobutyrylpiperazin-1-yl)methyl)-6-methoxypyridin-2-yl)-[1,1′-biphenyl]-3-yl)-1,5-dimethyl-4,5,6,7-tetrahydro-1H-imidazo[4,5-c]pyridine-2-carboxamide]: the Emax in experiment [1] stood at 93%. On human PD-L1 protein (setting [2]), the ΔTm at 10 µM amounted to 11.4 °C.
For the molecule `COc1nc(-c2cccc(-c3cccc(NC(=O)c4nc5c(n4C)CCN(C)C5)c3Cl)c2Cl)ccc1CN1CCN(C(=O)C2CC2)CC1` [Embodiment 200, N-(2,2′-Dichloro-3′-(5-((4-(cyclopropylcarbonyl)piperazin-1-yl)methyl)-6-methoxypyridin-2-yl)-[1,1′-biphenyl]-3-yl)-1,5-dimethyl-4,5,6,7-tetrahydro-1H-imidazo[4,5-c]pyridine-2-carboxamide], the Emax in experiment [1] stood at 95%. For the same molecule, on human PD-L1 protein (setting [2]), the ΔTm at 10 µM was determined as 12.5 °C.
On to `CCC(=O)N1CCN(Cc2ccc(-c3cccc(-c4cccc(NC(=O)c5nc6c(n5C)CCN(C)C6)c4Cl)c3Cl)nc2OC)CC1` [Embodiment 201, N-(2,2′-Dichloro-3′-(6-methoxy-5-((4-propionylpiperazin-1-yl)methyl)pyridin-2-yl)-[1,1′-biphenyl]-3-yl)-1,5-dimethyl-4,5,6,7-tetrahydro-1H-imidazo[4,5-c]pyridine-2-carboxamide], for which the Emax in experiment [1] turned out to be 94%. Also, the ΔTm at 10 µM at human PD-L1 protein (setting [2]) worked out at 12.1 °C.
Take `COc1nc(-c2cccc(-c3cccc(NC(=O)c4nc5c(n4C)CCN(C)C5)c3Cl)c2Cl)ccc1CN1CCN(C(C)=O)CC1` [Embodiment 203, N-(3′-(5-((4-Acetylpiperazin-1-yl)methyl)-6-methoxypyridin-2-yl)-2,2′-dichloro-[1,1′-biphenyl]-3-yl)-1,5-dimethyl-4,5,6,7-tetrahydro-1H-imidazo[4,5-c]pyridine-2-carboxamide]: the Emax in experiment [1] is 95%. Besides, on human PD-L1 protein (setting [2]), the “ΔTm (° C.)” value is 10.5 °C and the shift in melting temperature (ΔTm) at 10 µM is 13.5 °C.
For `COc1nc(-c2cccc(-c3cccc(NC(=O)c4nc5c(n4C)CCN(C)C5)c3Cl)c2Cl)ccc1CN1CC2CC(C1)N2C(=O)CC#N` [Embodiment 208, N-(2,2′-Dichloro-3′-(5-((6-(2-cyanoacetyl)-3,6-diazabicyclo[3.1.1]heptan-3-yl)methyl)-6-methoxypyridin-2-yl)-[1,1′-biphenyl]-3-yl)-1,5-dimethyl-4,5,6,7-tetrahydro-1H-imidazo[4,5-c]pyridine-2-carboxamide], the IC50 on human PD-1/PD-L1 binding came out at 9 nM. The Emax in experiment [1] is 81%.
`COC(=O)[C@H](CO)NCc1cnc(-c2cccc(-c3cccc(NC(=O)c4nc5c(n4C)CCN(C)C5)c3Cl)c2Cl)nc1OC` [Embodiment 227, Methyl ((2-(2,2′-dichloro-3′-(1,5-dimethyl-4,5,6,7-tetrahydro-1H-imidazo[4,5-c]pyridine-2-carboxamido)-[1,1′-biphenyl]-3-yl)-4-methoxypyrimidin-5-yl)methyl)-L-serinate]: the shift in melting temperature (ΔTm) at 10 µM on human PD-L1 protein (setting [2]) is 11.9 °C.

The record behind these values is patent US20230105212A1, “BIPHENYL DERIVATIVE INHIBITOR, PREPARATION METHOD THEREFOR AND USE THEREOF” (SHANGHAI HANSOH BIOMEDICAL CO., LTD., priority 2020, published 2023).
